According to US20200360647A1, “Use Of Inhaled Nitric Oxide For The Improvement Of Right And/Or Left Ventricular Function” (Bellerophon Pulse Technologies LLC, priority 2017, published 2020):
Where “and” joins values, the source holds several entries; their conditions need not be identical. Identical values can stand only once.

Legend:
Assay type in all cases: in vivo, human
[1] = test system: subjects with PH-IPF on LTOT; test: HRCT blood vessel volume, acute iNO, PH-IPF study (IK-7002-COPD-006); settings: iNO 75 mcg/kg IBW/hr, individual patients (Patient 1, Patient 2)
From the text: (§1) This study was an exploratory, three-part, clinical study to assess the effect of pulsed iNO on functional pulmonary imaging parameters in subjects with PH-COPD on LTOT (Part 1) PH-IPF on LTOT (Part 2 and Part 3) (IK-7002-COPD-006; NCT02267655). The objective of this exploratory study was to examine the utility of high resolution computed tomography (HRCT) to measure changes in functional respiratory imaging parameters as a function of short term iNO administration using a pulsed NO delivery device in subjects with PH-IPF (Part 2 and Part 3) on LTOT. The primary endpoint in this exploratory study is the change from baseline in lobar blood volume at total lung capacity (TLC) after dosing with pulsed iNO (Part 1), iNO or Placebo (Part 2a) and after 4 weeks iNO treatment (Part 3b) as measured by HRCT.
This was an exploratory clinical study to evaluated the utility of HRCT to measure the pharmacodynamic effects of short term pulsed administration of iNO using a pulsed NO delivery device in subjects with PH-IPF (Part 2 and Part 3) on LTOT. […]
(§2) The 2 subjects enrolled in Part 3a each received three different doses of iNO utilizing NO cylinder concentration (4,880 ppm) at a dose of 5 mcg/kg IBW/hr, 10 mcg/kg IBW/hr and 30 mcg/kg IBW/hr, all with LTOT. For each dose, the change in PAP pressure and the change in cardiac output was evaluated by RHC. […]

[2] = test system: subjects with PH-IPF on LTOT; test: sPAP by echocardiogram, acute iNO, PH-IPF study; settings: iNO 75 mcg/kg IBW/hr, individual patients (Patient 1, Patient 2)
From the text: as §1, with “HRCT. […]” for “HRCT.”
as §2
During the chronic phase, the vasodilation and the hemodynamics were assessed. […] Both the acute and chronic phases evaluated iNO doses of 30 and 75 mcg/kg IBW/hr.

subjects with PH-COPD [3] = test: TAPSE (RV function) during chronic pulsed iNO therapy, PH-COPD study; set-up: TAPSE Increase: unit not given beside the values
From the text: (§3) Maintenance and/or improvements in RV function can be assessed by many echocardiographic measurements. One such quantitative approach to assess RV function is the measurement of the TAPSE. The TAPSE estimates RV systolic function by measuring the level of systolic excursion of the lateral tricuspid valve annulus towards the apex. An excellent correlation between the TAPSE and RV ejection fraction as assessed by radionuclide angiography has previously been established and the approach appears reproducible and proven to be a strong predictor of prognosis in heart failure. [Reference: Heart. 2006 April; 92(Suppl 1): i19-i26.]
(§4) This study is an open label Phase 1 study of iNO therapy in subjects with PH-COPD (PULSE-COPD-007; NCT03135860). The primary outcome of this study is the change in lobar blood volume at total lung capacity with iNO and the change in lobar blood volume with iNO after 4 weeks of treatment with iNO as measured by HRCT.
(§5) Subjects also had sPAP≥38 mm Hg as measured by echocardiogram, a post-bronchodilatory FEV1/FVC<0.7 and a FEV1<60% predicted. All subjects were at least 40 years old and were current or former smokers with at least 10 pack-years of tobacco cigarette smoking before study entry. All subjects also had been receiving LTOT for at least 3 months for at least 10 hours per day.
(§6) The PH-COPD subjects received pulsed iNO therapy for 4 weeks for at least 12 hours/day. The iNO was administered utilizing a 4,880 ppm NO cylinder concentration.
These subjects were diagnosed with PH-COPD and received 4 weeks of treatment with iNO at a dose of 30 mcg/kg IBW/hr. The results verify the increase in TAPSE which correlates to RV function.

subjects with PH-COPD [4] = test: sPAP by echocardiogram during chronic iNO therapy, PH-COPD study
From the text: as §4, §5, §6
A further analysis was performed of seven PH-COPD subjects that completed 4 weeks of treatment with iNO at a dose of 30 mcg/kg IBW/hr. […]

subjects with PH-COPD [5] = test: Six-minute walk distance (6MWD) during chronic iNO therapy, PH-COPD study; settings: iNO 30 mcg/kg IBW/hr, individual subjects #1-#7
From the text: as §4, §5, §6
(§7) A further analysis was performed of seven PH-COPD subjects that completed 4 weeks of treatment with iNO at a dose of 30 mcg/kg IBW/hr.

[6] = test system: subjects with PH-IPF on LTOT; test: TAPSE (RV function) during chronic pulsed iNO therapy, PH-IPF study
From the text: as §3
The secondary endpoints of Part 2a (acute; placebo vs. iNO 75 mcg/kg IBW/hr) were change in Borg CR10 leg fatigue and dyspnea scale, changes in breathing questionnaire and changes in right ventricular and left ventricular function.
One patient from Part 2a entered into Part 2b. During Part 2b patient receive iNO utilizing NO cylinder concentration (4,880 ppm) at a dose of 75 mcg/kg IBW/hr during 4 weeks for at least 12 hours/day.
The 2 patients from Part 3a entered Part 3b. During Part 3b, patients received iNO utilizing NO cylinder concentration (4,880 ppm) at a dose of 30 mcg/kg IBW/hr.
Subject 1 received pulsed iNO at a dose of 75 mcg/kg IBW/hr for 4 weeks, and Subject 3 received pulsed iNO at a dose of 30 mcg/kg IBW/hr for 4 weeks.

[7] = test system: subjects with PH-IPF on LTOT; test: Safety and tolerability of iNO dose, PH-IPF study
Method: The safety endpoints in this study were: • a. Incidence and severity of treatment emergent adverse events (AEs), including those related to device deficiency; • b. Incidence of MetHb levels>7.0%; • c. New symptoms that may be due to rebound PH associated with a temporal acute withdrawal of investigational study drug (i.e., symptoms occurring within 20 minutes of acute withdrawal and including those associated with investigational medical device malfunction or failure): systemic arterial oxygen desaturation, hypoxemia, bradycardia, tachycardia, systemic hypotension, near-syncope, syncope, ventricular fibrillation, and/or cardiac arrest; • d. New or worsening symptoms of left heart failure or pulmonary edema; and • e. Any decrease in systemic oxygenation measured by oxygen saturation of arterial blood by pulse oximetry (SpO2), i.e., hypoxia or oxygen saturation decrease, deemed by the Investigator to be clinically significant.
The initial protocol intended that 4 subjects would be enrolled in Part 2. […] It was decided to temporarily stop recruitment. One of the 2 subjects completed 4 weeks of chronic use in Part 2b.
In the amendment a total of 2 subjects participated in Part 3. The dose in Part 3 was lower than in Part 2 and each subject was titrated to the optimum dose as determined by the investigator. […] The dose was monitored with a RHC in place. […]

subjects with PH-COPD [8] = test: HRCT blood vessel volume, acute iNO, PH-COPD study (PULSE-COPD-007); settings: individual subjects #1-#7
From the text: as §4, §5, §6, §7

[9] = iNO 30 mcg/kg IBW/hr for 4 weeks, average of four subjects, vs baseline
[10] = iNO 30 mcg/kg IBW/hr for 4 weeks, vs baseline, individual subjects (1, 6, 7, 12)
[11] = group value, vs baseline 60.3 mm Hg, p=0.02
[12] = iNO 30 mcg/kg IBW/hr, 4 weeks vs baseline, individual subjects #1-#7
[13] = PH-IPF Subject 1, pulsed iNO 75 mcg/kg IBW/hr for 4 weeks, vs baseline
[14] = PH-IPF Subject 3, pulsed iNO 30 mcg/kg IBW/hr for 4 weeks, vs baseline
[15] = PH-IPF, average of Subject 1 (75) and Subject 3 (30 mcg/kg IBW/hr), 4 weeks, vs baseline

For `[N]=O` [iNO, nitric oxide], the “Acute change in Blood Vessel Volume %” value [1] was 14.0 ± 4.7% and 34.2 ± 7.6%, the “Acute Change in sPAP (%)” value [2] was −9.3% and −9.7% and the “TAPSE after iNO therapy was discontinued” value (subjects with PH-COPD [3]; group value, N=5 (FIG. 7)) was 19.0. The “TAPSE 4 Week, Average” value (subjects with PH-COPD [3]; iNO 30 mcg/kg IBW/hr for 4 weeks, average of four subjects, baseline 16) was 20, the “TAPSE % Change, Average” value (subjects with PH-COPD [3]; [9]) was 25% and the “TAPSE Increase, Average” value (subjects with PH-COPD [3]; [9]) was 4. For the same compound, the “TAPSE 4 Week” value (subjects with PH-COPD [3]; iNO 30 mcg/kg IBW/hr for 4 weeks, individual subjects (1, 6, 7, 12)) was 14 and 18 (2×) and 28, the “TAPSE % Change” value (subjects with PH-COPD [3]; [10]) was 0% and 67% and 22% and 13% and the “TAPSE Increase” value (subjects with PH-COPD [3]; [10]) was 0 and 7 and 5 and 2. For the same compound, the “sPAP 4 weeks after iNO therapy was discontinued” value (subjects with PH-COPD [4]; group value (FIG. 6)) was 58.0 mm Hg, the “sPAP drop after 4 weeks of iNO therapy” value (subjects with PH-COPD [4]; [11]) was 12.0 mm Hg and the “sPAP drop after 4 weeks of iNO therapy (%)” value (subjects with PH-COPD [4]; [11]) was 19.9%. The “sPAP, 4 weeks iNO” value (subjects with PH-COPD [4]; iNO 30 mcg/kg IBW/hr for 4 weeks, individual subjects #1-#7) was 69 mm Hg and 37 mm Hg and 40 mm Hg and 74 mm Hg and 30 mm Hg and 34 mm Hg and 54 mm Hg, the “Change sPAP (mm Hg)” value (subjects with PH-COPD [4]; [12]) was −25 mm Hg and −10 mm Hg (2×) and −15 mm Hg and −4 mm Hg and −12 mm Hg and −8 mm Hg and the “sPAP % Change” value (subjects with PH-COPD [4]; [12]) was −27% (2×) and −21% and −5% and −25% and −26% and −13%. For the same compound, the “6MWD Change from Baseline, 2 weeks iNO” value (subjects with PH-COPD [5]; 2 weeks vs baseline) was “+135 meters and +79 meters and +15 meters and +35 meters and +25 meters and +57 meters and +32 meters”, the “6MWD, 2 weeks iNO” value (subjects with PH-COPD [5]; 2 weeks) was 335 meters and 263 meters and 493 meters and 115 meters and 495 meters and 400 meters and 173 meters and the “6MWD Change from Baseline, 4 weeks iNO” value (subjects with PH-COPD [5]; 4 weeks vs baseline) was “+135 meters and +11 meters and +2 meters and −3 meters and +28 meters and +80 meters and +100 meters”. For the same compound, the “6MWD, 4 weeks iNO” value (subjects with PH-COPD [5]; 4 weeks) was 335 meters and 195 meters and 480 meters and 77 meters and 498 meters and 423 meters and 242 meters, the “TAPSE % Change” value [6, 13] was 21% and the “TAPSE Increase” value [6, 13] was 3. The “TAPSE % Change” value [6, 14] was 12%, the “TAPSE Increase” value [6, 14] was 4 and the “TAPSE % Change, Average” value [6, 15] was 15%. The “TAPSE Increase, Average” value [6, 15] was 3, the “TAPSE 4 Week, Average” value ([6]; PH-IPF, average of Subject 1 (75 mcg/kg IBW/hr) and Subject 3 (30 mcg/kg IBW/hr), 4 weeks, baseline 20) was 23 and the “Safety of dose titration monitored with RHC” value ([7]; 2 PH-IPF subjects of Part 3, titrated 5, 10, 30 mcg/kg IBW/hr) was “could titrate to iNO at a dose of 30 mcg/kg IBW/hr safely”. For the same compound, the “PAP after discontinuation of iNO” value ([7]; two PH-IPF patients of Part 2, iNO 75 mcg/kg IBW/hr) was “sudden increase in PAP after discontinuation” and the “Acute change in Blood Vessel Volume %” value (subjects with PH-COPD [8]) was 6.2 ± 1.6% and 3.3 ± 2.1% and 6.6 ± 4.5% and 9.7 ± 3.5% and −1.0 ± 4.0% and 2.7 ± 0.4%.
